Reference: patent publication EP3679952A1, “NANOEMULSIONS ENCAPSULATING PRODRUGS” (Université de Strasbourg, priority 2019, dated 2020)

Columns and labels:
[1] = DOX encapsulation in nanoemulsions with or without Lipo-HD, absorption spectra after dialysis (Example 1); type: physicochemical; details: for loading: after dialysis; for retention inside nanoemulsions after dialysis: dialysis in 0.1M NaHCO3 for 12h
Description: The compound Lipo-HD was dissolved firstly into the oil Labrafac® at 10 wt%. Then 65 mg of surfactant Solutol was added to 35 mg of above solution. The mixture was homogenized under magnetic stirring at 90°C for 10 min up to complete homogenisation. Finally, nanoemulsions were generated with the addition of ultrapure (Milli-Q) water (230 mg). The size of nanoemulsions could be monitored by the variation of the ratio between oil (labrafac) and surfactant (solutol). For fluorescence studies, 0.5 wt% of a donor dye […] is added respectively to Labrafac® containing or not 10 wt% of Lipo-HD. Then the nanoemulsions were prepared as described above. […] was used for monitoring the encapsulation, release and stability of the nanoemulsion by looking on the intensity variation between […] and DOX. […] To those solutions, […] of DOX-HCl (30 mM) was added. The mixtures were vortexes for 12 h at 37 °C. The Scheme of synthesis is illustrated in figure 1. The resulting solutions were dialyzed in 500 mL of 0.1M NaHCO3 for 12h. Absorption spectra were recorded on a Cary® spectrophotometer (Varian) according to conventional measurement method.

Jimt1 = test: MTS cytotoxicity assay in cell culture; type: cell-based, Human; details: Jimt1 cells, 48h incubation, prodrugs loaded in nanoemulsion, free drugs without nanoemulsion
Description: (§1) The MTS assay is based on the reduction of the MTS tetrazolium compound by viable mammalian cells (here, by tumor cells) to generate a colored formazan dye that is soluble in cell culture media. The formazan dye is quantified by measuring the absorbance at 490-500 nm. […] After 24h, the medium was removed and replaced by drug-containing (LipoHD-DOX nanoemulsion or DOX alone) medium. After 48h, the medium was removed and replaced with MTS-containing medium (0,5 mg/ml). After 4h of incubation, the medium was removed, replaced with 100µl of DMSO (agitation, 20 min) and the absorbance was read at 570 nm.

MDA-MB-231 = test: MTS cytotoxicity assay in cell culture; type: cell-based, Human; details: MDA-MB-231 cells, 48h incubation, prodrugs loaded in nanoemulsion, free drugs without nanoemulsion
Description: as §1

4T1 = test: MTS cytotoxicity assay in cell culture; type: cell-based, mouse; details: 4T1 cells, 48h incubation, prodrugs loaded in nanoemulsion, free drugs without nanoemulsion
Description: as §1

[2] = Size distribution of nanoemulsions by dynamic light scattering; type: physicochemical; details: nanoemulsion with the compound at 5 wt% in Labrafac, Cremophore, reacted with doxorubicin (Example 2)
Description: The compound Lipo-HD was dissolved firstly into the oil Labrafac® at 10 wt%. Then 65 mg of surfactant Solutol was added to 35 mg of above solution. The mixture was homogenized under magnetic stirring at 90°C for 10 min up to complete homogenisation. Finally, nanoemulsions were generated with the addition of ultrapure (Milli-Q) water (230 mg). The size of nanoemulsions could be monitored by the variation of the ratio between oil (labrafac) and surfactant (solutol).
Size distributions were determined by dynamic light scattering using Zetasizer Nano ZSP (Malvern Instruments S.A).
(§2) Corresponding compounds of formula II'a were respectively dissolved first into the oil Labrafac® at 5 wt%. Then 45 mg of surfactant Cremophore ® was added to 55 mg of above solution. The mixture was homogenized under magnetic stirring at 40°C for 10 min up to complete homogenisation. Finally, nanoemulsions were generated with the addition of phosphate buffered saline (230 mg).

[3] = Doxorubicin loading of nanoemulsions containing compounds of formula II'a (Example 2); type: physicochemical; details: nanoemulsion with the compound at 5 wt% in Labrafac, Cremophore, reacted with doxorubicin at pH 4, 37°C, 24h, then dialysed 24h and centrifuged
Description: as §2
300 µl of the obtained nanoemulsion encapsulating the compound of formula II'a were diluted into 300 µl of 20 mM acetate buffer (pH=4), and then 50 µl of 30 mM solution of doxorubicin in DMSO was added. The mixture was reacted under shaking at 37°C during 24h.
After the reaction, the sample was dialysed for 24h at NaHCO3 buffer (0.1 M) at pH8 and then centrifugation at 6000 rpm for 1 minute was carried out.

[4] = Storage stability of nanoemulsions (absorption spectra, precipitation) after 4 days; type: physicochemical; details: for change of absorption spectra on storage: nanoemulsions of the compound reacted with DOX, after 4 days storage at 4°C
Description: • Figure 1: Scheme of synthesis of DOX/Lipo-HD conjugate in situ inside lipid nanoemulsions. • Figure 2A: Absorption spectra of 100 timed diluted nanoemulsions containing reference dye F888 and with Lipo-HD alone (F888-Lipo-HD), of 100 timed diluted nanoemulsions with Lipo-HD after incubation with DOX (F888-Lipo-HD-DOX), and of nanoemulsions encapsulating F888-Lipo-HD-DOX and further dialysis (F888-Lipo-HD-DOX after dialysis). Reference dye F888 was encapsulated at 0.5 wt% of with respect to Labrafac oil. Lipo-HD was encapsulated at 10 wt%. • Figure 2B: Absorption spectra of 100 timed diluted nanoemulsions containing F888 but without Lipo-HD (F888), of 100 times diluted nanoemulsions containing F888 after incubation with DOX (F888-DOX), and of nanoemulsion encapsulating F888-DOX further dialysis (F888-DOX after dialysis). […] Reference dye F888 was encapsulated at 0.5 wt%. • Figure 4A: Fluorescence spectra of nanoemulsions encapsulating 0.5 wt% of donor dye F888 with 10 wt% of Lipo-HD (F888-Lipo-HD) or without Lipo-HD (F888). • Figure 4B: Fluorescence spectra of nanoemulsions with Lipo-HD incubated with DOX and then dialyzed (F888-Lipo-HD-DOX), of nanoemulsions without Lipo-HD incubated with DOX and then dialyzed (F888-DOX), and of nanoemulsions containing F888 alone (F888). […] All fluorescence spectra were corrected from the blank. • Figures 5A, 5B: Fluorescence spectra of F888-Lipo-HD-DOX nanoemulsions (5000-fold dilution) in the presence of blank nanoemulsions (50-fold dilution) at pH 7.4 (Fig. 5A) and 4.0 (Fig. 5B). […] All fluorescence spectra were corrected from the blank. • Figures 5C: Fluorescence intensity ratio donor/acceptor as a function of incubation time for pH 7.4 and 4.0 (Fig. 5C). • Figure 6A, 6B: Absorption spectra of four nanoemulsions containing respectively a compound of formula I'a, where R1 and R2 are butyl (C4)-alkyl chains, or octyl (C8)-alkyl chains, or octadecyl (C18)-alkyl chains, or R1 is a single C18 alkyl-chain, while R2 = H (C18 mono chain). […]

Compound	loading ([1]; DOX loading of nanoemulsion without Lipo-HD)	retention inside nanoemulsions after dialysis [1]	Cytotoxicity (Jimt1)	Cytotoxicity (MDA-MB-231)	Cytotoxicity (4T1)	PDI [2]	Size (nm) [2]	loading ([1]; DOX loading with respect to labrafac oil, nanoemulsion with 10 wt% Lipo-HD, calculated with extinction coefficient of DOX 12 200 M^-1cm^-1)	Encapsulation loading (%) [3]	loading efficiency (%) [3]	change of absorption spectra on storage [4]	precipitation of nanoemulsion ([4]; nanoemulsion of the compound reacted with DOX, 4 days after preparation)	solubility in oil ([1]; conjugate formed in situ in nanoemulsion, compared with DOX alone)
COc1cccc2c1C(=O)c1c(O)c3c(c(O)c1C2=O)C[C@@](O)(C(=O)CO)C[C@@H]3O[C@H]1C[C@H](N)[C@H](O)[C@H](C)O1 [DOX, doxorubicin, reference compound]	< 0.06%	leaked out	dose-dependent cytotoxicity	dose-dependent cytotoxicity	dose-dependent cytotoxicity								
CCCCCCCCCCCCCCCCCCN(CCCCCCCCCCCCCCCCCC)C(=O)CCC(=O)NN [Lipo-HD, 3-(hydrazinecarbonyl)-N,N-dioctadecylpropanamide]						0.118	99nm	1.6 wt%	1.58%	55%	minimal changes		
CCCCCCCCCCCCCCCCCCNC(=O)CCC(=O)NN [Lipo-HD-C18]						0.132	104nm		0.68%	21%	strong loss of absorbance	signs of precipitation	
CCCCCCCCCCCCCCCCCCN(CCCCCCCCCCCCCCCCCC)C(=O)CCC(=O)NN=C(CO)C1(O)Cc2c(O)c3c(c(O)c2C(OC2CC(N)C(O)C(C)O2)C1)C(=O)c1c(OC)cccc1C3=O (stereo not shown) [Lipo-HD-DOX]		remain inside nanoemulsions after dialysis	higher toxicity	higher toxicity	similarly								much better soluble in oil than DOX alone
CCCCCCCCCCCCCCCCCCN(CCCCCCCCCCCCCCCCCC)C(=O)CCC(=O)Nc1ccn([C@@H]2O[C@H](CO)[C@@H](O)C2(F)F)c(=O)n1 [Lipo-N-Gem]			slightly more efficient	slightly more efficient	dose-dependent								
CC(=O)O[C@H]1C(=O)[C@@]2(C)[C@H]([C@H](OC(=O)c3ccccc3)[C@]3(O)C[C@H](OC(=O)[C@H](O)[C@@H](NC(=O)c4ccccc4)c4ccccc4)C(C)=C1C3(C)C)[C@]1(OC(C)=O)CO[C@@H]1C[C@@H]2O [paclitacel, paclitaxel, reference compound]			slightly higher	slightly higher	slightly higher								
